Measured values reported in BindingDB's records for doi:10.1016/0028-3908(94)90059-0 (University of Alberta, 1994).
Several values for one entry are separate records, joined by “and”; a condition that tells them apart may be missing. Equal entries are not always repeated.

Legend:
[1] = molecular target: 5-hydroxytryptamine receptor 7 (Mus musculus, UniProt P32304)
[2] = molecular target: T1, 5-hydroxytryptamine receptor 1F (Homo sapiens, UniProt P30939)
T1 sequence (P30939 whole entry): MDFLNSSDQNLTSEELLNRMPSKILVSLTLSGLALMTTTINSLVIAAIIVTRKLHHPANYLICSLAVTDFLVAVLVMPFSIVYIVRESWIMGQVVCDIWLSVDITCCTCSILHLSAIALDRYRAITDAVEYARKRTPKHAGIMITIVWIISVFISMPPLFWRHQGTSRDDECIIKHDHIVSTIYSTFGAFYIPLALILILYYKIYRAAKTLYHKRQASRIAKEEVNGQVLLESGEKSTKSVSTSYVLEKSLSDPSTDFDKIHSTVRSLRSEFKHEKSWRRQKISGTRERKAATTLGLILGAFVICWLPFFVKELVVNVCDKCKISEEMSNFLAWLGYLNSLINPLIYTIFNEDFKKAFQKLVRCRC

[3] = molecular target: 5-hydroxytryptamine receptor 1D (Rattus norvegicus, UniProt P28565)
[4] = molecular target: 5-hydroxytryptamine receptor 1D (Canis lupus familiaris, UniProt P11614)
[5] = molecular target: 5-hydroxytryptamine receptor 2B (Mus musculus, UniProt Q02152)
[6] = molecular target: 5-hydroxytryptamine receptor 1D (Homo sapiens, UniProt P28221)
[7] = molecular target: 5-hydroxytryptamine receptor 1B (Homo sapiens, UniProt P28222)
[8] = molecular target: T2, 5-hydroxytryptamine receptor 1F (Rattus norvegicus, UniProt P30940)
T2 sequence (P30940 whole entry): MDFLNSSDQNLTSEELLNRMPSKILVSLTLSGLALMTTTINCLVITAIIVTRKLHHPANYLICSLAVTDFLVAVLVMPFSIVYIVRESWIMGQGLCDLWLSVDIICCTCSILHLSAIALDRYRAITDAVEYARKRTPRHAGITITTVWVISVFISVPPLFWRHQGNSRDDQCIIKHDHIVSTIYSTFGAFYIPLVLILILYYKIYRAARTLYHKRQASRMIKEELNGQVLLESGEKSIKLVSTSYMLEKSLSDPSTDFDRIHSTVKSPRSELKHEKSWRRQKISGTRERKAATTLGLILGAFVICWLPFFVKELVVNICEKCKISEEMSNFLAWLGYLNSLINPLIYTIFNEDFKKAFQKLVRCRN

[9] = molecular target: 5-hydroxytryptamine receptor 1E (Homo sapiens, UniProt P28566)
[10] = molecular target: 5-hydroxytryptamine receptor 2B (Rattus norvegicus, UniProt P30994)
[11] = molecular target: 5-hydroxytryptamine receptor 1B (Rattus norvegicus, UniProt P28564)
[12] = molecular target: 5-hydroxytryptamine receptor 5A (Mus musculus, UniProt P30966)
[13] = molecular target: T3, 5-hydroxytryptamine receptor 1F (Mus musculus, UniProt Q02284)
T3 sequence (Q02284 whole entry): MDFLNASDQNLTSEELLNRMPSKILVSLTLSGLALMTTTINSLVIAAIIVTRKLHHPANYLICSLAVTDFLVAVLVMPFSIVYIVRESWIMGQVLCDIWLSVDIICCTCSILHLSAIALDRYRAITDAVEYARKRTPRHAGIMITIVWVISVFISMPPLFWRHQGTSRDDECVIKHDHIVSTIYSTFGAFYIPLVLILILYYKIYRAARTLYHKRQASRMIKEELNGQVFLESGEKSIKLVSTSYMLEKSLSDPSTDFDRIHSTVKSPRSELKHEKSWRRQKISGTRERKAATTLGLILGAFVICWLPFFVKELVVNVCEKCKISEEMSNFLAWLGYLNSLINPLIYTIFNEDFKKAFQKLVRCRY

[14] = molecular target: T4, 5-hydroxytryptamine receptor 3A (Mus musculus, UniProt P23979)
T4 sequence (P23979 whole entry): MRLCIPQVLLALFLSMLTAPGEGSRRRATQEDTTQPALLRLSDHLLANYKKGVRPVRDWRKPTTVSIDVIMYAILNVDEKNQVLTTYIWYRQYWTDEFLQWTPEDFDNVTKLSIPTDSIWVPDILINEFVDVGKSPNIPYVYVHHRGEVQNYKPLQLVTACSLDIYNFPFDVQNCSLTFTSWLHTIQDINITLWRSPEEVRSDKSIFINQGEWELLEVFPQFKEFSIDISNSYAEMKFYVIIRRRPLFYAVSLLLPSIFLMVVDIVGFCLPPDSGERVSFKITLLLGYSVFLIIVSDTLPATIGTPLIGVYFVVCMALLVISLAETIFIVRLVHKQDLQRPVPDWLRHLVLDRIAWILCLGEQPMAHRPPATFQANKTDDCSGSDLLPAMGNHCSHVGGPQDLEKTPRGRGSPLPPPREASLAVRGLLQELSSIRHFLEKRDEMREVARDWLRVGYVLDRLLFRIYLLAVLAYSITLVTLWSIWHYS

[15] = molecular target: 5-hydroxytryptamine receptor 1B (Mus musculus, UniProt P28334)
Sequence of 5-hydroxytryptamine receptor 1B (Mus musculus, UniProt P28334) (P28334 whole entry): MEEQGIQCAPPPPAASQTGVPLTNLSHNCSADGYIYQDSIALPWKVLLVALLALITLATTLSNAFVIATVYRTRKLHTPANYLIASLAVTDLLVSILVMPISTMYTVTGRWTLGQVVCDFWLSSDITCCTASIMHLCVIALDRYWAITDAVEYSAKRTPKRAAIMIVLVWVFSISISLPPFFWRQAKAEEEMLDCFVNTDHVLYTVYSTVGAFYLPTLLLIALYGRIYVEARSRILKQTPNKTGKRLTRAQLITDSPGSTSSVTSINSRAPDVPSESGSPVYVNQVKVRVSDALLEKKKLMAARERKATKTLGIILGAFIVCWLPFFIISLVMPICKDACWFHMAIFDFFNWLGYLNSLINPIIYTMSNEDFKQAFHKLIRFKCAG

Sequence of 5-hydroxytryptamine receptor 1E (P28566 whole entry): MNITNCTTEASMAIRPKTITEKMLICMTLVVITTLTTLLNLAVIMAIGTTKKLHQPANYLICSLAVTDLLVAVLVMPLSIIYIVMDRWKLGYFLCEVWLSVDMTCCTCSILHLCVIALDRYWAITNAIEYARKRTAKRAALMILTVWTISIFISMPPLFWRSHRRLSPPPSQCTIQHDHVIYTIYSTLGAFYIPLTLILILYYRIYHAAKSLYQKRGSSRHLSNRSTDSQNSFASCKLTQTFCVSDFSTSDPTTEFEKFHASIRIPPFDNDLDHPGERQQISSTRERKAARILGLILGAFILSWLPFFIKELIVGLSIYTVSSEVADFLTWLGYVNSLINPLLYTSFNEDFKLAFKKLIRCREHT
Sequence of 5-hydroxytryptamine receptor 2B (Mus musculus, UniProt Q02152) (Q02152 whole entry): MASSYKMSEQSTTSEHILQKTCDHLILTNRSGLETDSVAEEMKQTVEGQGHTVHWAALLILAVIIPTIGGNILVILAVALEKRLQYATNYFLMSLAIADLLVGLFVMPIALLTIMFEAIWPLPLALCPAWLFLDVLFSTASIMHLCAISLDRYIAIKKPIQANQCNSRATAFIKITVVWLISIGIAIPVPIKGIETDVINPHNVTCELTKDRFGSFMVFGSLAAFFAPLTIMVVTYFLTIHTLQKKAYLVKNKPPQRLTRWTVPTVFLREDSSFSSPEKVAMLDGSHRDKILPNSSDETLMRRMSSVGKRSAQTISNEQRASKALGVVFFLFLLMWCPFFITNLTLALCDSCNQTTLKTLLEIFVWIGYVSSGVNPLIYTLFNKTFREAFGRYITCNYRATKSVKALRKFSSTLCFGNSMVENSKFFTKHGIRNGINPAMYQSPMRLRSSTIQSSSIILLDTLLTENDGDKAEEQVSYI
Sequence of 5-hydroxytryptamine receptor 2B (Rattus norvegicus, UniProt P30994) (P30994 whole entry): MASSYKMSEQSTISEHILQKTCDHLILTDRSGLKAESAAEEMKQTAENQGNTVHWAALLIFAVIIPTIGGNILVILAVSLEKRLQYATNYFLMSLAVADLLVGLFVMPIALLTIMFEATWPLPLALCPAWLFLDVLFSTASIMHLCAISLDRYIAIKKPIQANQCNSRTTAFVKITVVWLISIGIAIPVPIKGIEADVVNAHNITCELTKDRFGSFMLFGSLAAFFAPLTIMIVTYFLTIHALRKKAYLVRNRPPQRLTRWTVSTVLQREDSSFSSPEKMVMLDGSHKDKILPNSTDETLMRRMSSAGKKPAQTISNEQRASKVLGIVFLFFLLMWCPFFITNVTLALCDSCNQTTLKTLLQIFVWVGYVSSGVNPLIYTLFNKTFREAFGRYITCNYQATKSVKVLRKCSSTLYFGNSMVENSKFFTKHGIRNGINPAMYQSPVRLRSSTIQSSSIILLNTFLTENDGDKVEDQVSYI
Sequence of 5-hydroxytryptamine receptor 7 (P32304 whole entry): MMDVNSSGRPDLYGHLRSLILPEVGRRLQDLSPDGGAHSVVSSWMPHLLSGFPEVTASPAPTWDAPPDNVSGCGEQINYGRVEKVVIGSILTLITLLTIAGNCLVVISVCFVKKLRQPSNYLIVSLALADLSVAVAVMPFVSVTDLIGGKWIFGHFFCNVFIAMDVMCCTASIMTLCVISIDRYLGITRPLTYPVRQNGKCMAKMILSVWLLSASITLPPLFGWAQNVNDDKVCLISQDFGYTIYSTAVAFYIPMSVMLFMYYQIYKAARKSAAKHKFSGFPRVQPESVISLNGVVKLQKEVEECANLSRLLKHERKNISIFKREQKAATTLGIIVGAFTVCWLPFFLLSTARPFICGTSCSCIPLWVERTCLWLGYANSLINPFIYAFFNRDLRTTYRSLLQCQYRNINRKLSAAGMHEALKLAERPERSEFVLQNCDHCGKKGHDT
Sequence of 5-hydroxytryptamine receptor 1B (Homo sapiens, UniProt P28222) (P28222 whole entry): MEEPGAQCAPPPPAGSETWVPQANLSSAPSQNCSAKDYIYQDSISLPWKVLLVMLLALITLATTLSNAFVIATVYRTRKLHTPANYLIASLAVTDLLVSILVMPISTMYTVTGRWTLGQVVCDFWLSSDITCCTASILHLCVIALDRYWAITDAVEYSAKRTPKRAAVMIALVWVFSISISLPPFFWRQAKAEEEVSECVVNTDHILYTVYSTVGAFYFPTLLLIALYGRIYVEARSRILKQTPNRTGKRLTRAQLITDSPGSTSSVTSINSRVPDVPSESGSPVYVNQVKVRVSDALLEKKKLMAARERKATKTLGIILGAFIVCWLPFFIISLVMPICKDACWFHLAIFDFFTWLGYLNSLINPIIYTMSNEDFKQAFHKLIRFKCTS
Sequence of 5-hydroxytryptamine receptor 1D (Rattus norvegicus, UniProt P28565) (P28565 whole entry): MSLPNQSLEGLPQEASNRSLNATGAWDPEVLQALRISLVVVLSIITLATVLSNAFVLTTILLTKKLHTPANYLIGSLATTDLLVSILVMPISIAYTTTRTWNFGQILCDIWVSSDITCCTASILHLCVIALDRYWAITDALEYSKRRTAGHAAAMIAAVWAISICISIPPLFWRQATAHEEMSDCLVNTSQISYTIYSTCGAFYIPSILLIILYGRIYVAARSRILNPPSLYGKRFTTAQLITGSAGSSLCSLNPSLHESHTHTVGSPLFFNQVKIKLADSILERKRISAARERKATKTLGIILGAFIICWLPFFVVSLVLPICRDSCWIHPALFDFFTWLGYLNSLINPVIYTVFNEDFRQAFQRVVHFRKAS
Sequence of 5-hydroxytryptamine receptor 1B (Rattus norvegicus, UniProt P28564) (P28564 whole entry): as the sequence (P28334 whole entry) above, with A15T, T23A, G33D, E152D, M192V, A270V, D272E, A385T counted along it
Sequence of 5-hydroxytryptamine receptor 1D (Homo sapiens, UniProt P28221) (P28221 whole entry): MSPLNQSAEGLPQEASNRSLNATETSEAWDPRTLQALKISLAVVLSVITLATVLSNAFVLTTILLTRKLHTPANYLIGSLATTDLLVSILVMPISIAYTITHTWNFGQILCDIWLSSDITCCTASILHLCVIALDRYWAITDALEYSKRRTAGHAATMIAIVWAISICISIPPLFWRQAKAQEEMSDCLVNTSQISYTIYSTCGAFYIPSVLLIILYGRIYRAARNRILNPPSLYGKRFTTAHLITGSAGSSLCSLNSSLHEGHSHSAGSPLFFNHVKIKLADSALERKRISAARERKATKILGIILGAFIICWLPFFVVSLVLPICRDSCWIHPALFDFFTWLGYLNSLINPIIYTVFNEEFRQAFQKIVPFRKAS
Sequence of 5-hydroxytryptamine receptor 5A (P30966 whole entry): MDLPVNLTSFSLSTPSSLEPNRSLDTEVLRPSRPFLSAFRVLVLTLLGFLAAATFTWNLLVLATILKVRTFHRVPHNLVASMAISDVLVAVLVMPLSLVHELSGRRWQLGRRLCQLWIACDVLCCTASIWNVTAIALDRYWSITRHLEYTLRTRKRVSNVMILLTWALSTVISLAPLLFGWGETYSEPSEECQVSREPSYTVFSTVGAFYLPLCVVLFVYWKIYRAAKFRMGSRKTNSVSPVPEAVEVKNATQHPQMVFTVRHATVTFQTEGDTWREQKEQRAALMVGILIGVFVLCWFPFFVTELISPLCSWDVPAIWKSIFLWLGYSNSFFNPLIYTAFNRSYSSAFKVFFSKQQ
Sequence of 5-hydroxytryptamine receptor 1D (Canis lupus familiaris, UniProt P11614) (P11614 whole entry): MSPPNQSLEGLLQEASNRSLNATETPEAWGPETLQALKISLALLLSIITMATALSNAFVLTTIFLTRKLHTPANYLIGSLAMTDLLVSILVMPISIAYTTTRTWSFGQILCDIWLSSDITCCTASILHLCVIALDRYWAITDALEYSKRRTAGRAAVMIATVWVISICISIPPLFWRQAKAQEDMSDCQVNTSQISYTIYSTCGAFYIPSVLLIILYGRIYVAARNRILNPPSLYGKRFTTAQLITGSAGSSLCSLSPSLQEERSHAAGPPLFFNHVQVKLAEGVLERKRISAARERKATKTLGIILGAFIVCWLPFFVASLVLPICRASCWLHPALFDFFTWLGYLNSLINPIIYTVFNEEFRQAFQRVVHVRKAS

O=C(CCCN1CCC2(CC1)C(=O)NCN2c1ccccc1)c1ccc(F)cc1 [8-[4-(4-fluorophenyl)-4-oxidanylidene-butyl]-1-phenyl-1,3,8-triazaspiro[4.5]decan-4-one]
Ki [1]: 63.1 nM
Ki [2]: 3.98 nM
Ki [3]: 61.6 nM
Ki [4]: 1000 nM
Ki [5]: 50.1 nM

CN1C[C@H](CNC(=O)OCc2ccccc2)C[C@@H]2c3cccc4c3c(cn4C)C[C@H]21 [METERGOLINE]
Ki [1]: 31.6 nM
Ki [3]: 0.77 nM
Ki [6]: 0.6 nM
Ki [7]: 5.24 nM and 36.3 nM
Ki [8]: 513 nM
Ki [9]: 1120 nM and 776 nM

CN1CCN(c2nc3cc(C(F)(F)F)ccc3n3cccc23)CC1 [CAS_109028-10-6]
Ki [3]: 4.89 nM

COc1cc(CC(C)N)c(OC)cc1I (stereo not given) [[125I]2,5-dimethoxy-4-iodoamphetamine]
Ki [2]: 2510 nM
Ki [10]: 27.5 nM

CSc1ccc2c(c1)C(N1CCN(C)CC1)Cc1ccccc1S2 (stereo not given) [methanesulfonic acid;1-methyl-4-(3-methylsulfanyl-5,6-dihydrobenzo[b][1]benzothiepin-5-yl)piperazine]
Ki [11]: 12.9 nM and 10.5 nM
Ki [3]: 0.58 nM
Ki [8]: 1000 nM
Ki [9]: 209 nM and 120 nM
Ki [12]: 126 nM

CN(C)CCc1c[nH]c2ccc(O)cc12 [3-[2-(dimethylamino)ethyl]indol-5-ol]
Ki [13]: 31.6 nM

CC(C)(C)[C@]1(O)CCN2C[C@H]3c4ccccc4CCc4cccc(c43)[C@@H]2C1
Ki [1]: 31.6 nM
Ki [2]: 3890 nM

COc1ccc2[nH]cc(CCN(C)C)c2c1 [3-(2-DIMETHYLAMINOETHYL)-5-METHOXYINDOLE]
Ki [4]: 5.12 nM

CCN(CC)C(=O)[C@@H]1C=C2c3cccc4[nH]c(Br)c(c34)C[C@H]2N(C)C1 [LSD,2-Bromo]
Ki [1]: 10 nM
Ki [10]: 12.6 nM

NCCc1c[nH]c2ccccc12 [1H-indole-3-ethanamine]
Ki [10]: 200 nM
Ki [5]: 200 nM

CN1C2CCC1CC(OC(=O)c1c[nH]c3ccccc13)C2 (stereo not given)
Ki [14]: 1.99 nM

CCN(CC)C(=O)[C@@H]1C=C2c3cccc4[nH]cc(c34)C[C@H]2N(C)C1 [(4R,7R)-N,N-diethyl-6-methyl-6,11-diazatetracyclo[7.6.1.0^{2,7}.0^{12,16}]hexadeca-1(16),2,9,12,14-pentaene-4-carboxamide]
Ki [4]: 12.6 nM

CN1CCc2cc(Cl)c(O)cc2[C@@H](c2ccccc2)C1 [SCH 23390,R(+)]
Ki [10]: 83.2 nM

CN1CCC(=C2c3ccccc3CCc3sccc32)CC1 [NSC_27400]
Ki [10]: 38.9 nM

CCCN(CCC)C1CCc2cccc(O)c2C1 (stereo not given)
Ki [1]: 251 nM
Ki [12]: 1580 nM

Cc1cc(C(C)(C)C)c(O)c(C)c1CC1=NCCN1 [SMR000059324]
Ki [11]: 2.51 nM and 0.81 nM
Ki [3]: 1.28 nM

Cn1cc(CCN)c2cc(O)ccc21 [5-HT,omega-N-Me]
Ki [10]: 10.5 nM

c1ccc2c(N3CCNCC3)cccc2c1
Ki [2]: 53.7 nM
Ki [11]: 39.8 nM
Ki [6]: 7.41 nM
Ki [7]: 12 nM

CCCN(CCC)CCc1c[nH]c2ccc(C(N)=O)cc12 [NN-DIPROP-5-CT]
Ki [6]: 12.9 nM
Ki [7]: 41.7 nM

NCCc1c[nH]c2ccc(Br)cc12
Ki [10]: 38.9 nM

CN1CC(C(=O)N[C@]2(C)O[C@@]3(O)C4CCCN4C(=O)[C@H](Cc4ccccc4)N3C2=O)CC2c3cccc4[nH]cc(c34)CC21 (stereo partly drawn) [7-Methyl-4,6,6a,7,8,9,10,10a-octahydro-indolo[4,3-fg]quinoline-9-carboxylic acid ((2R,5S,10bS)-5-benzyl-10b-hydroxy-2-methyl-3,6-dioxo-octahydro-oxazolo[3,2-a]pyrrolo[2,1-c]pyrazin-2-yl)-amide]
Ki [3]: 0.06 nM
Ki [10]: 145 nM

Clc1cccc(N2CCNCC2)c1 [mCPP]
Ki [7]: 363 nM and 501 nM
Ki [10]: 26.9 nM

CN1C[C@@H](NS(=O)(=O)N(C)C)C[C@@H]2c3cccc4c3c(cn4C)C[C@H]21 [MESULERGINE]
Ki [1]: 25.1 nM
Ki [7]: 1290 nM and 631 nM

FC(F)(F)c1cccc(N2CCNCC2)c1 [TFMPP]
Ki [3]: 58.9 nM
Ki [13]: 794 nM
Ki [10]: 85.1 nM

CN1C2CCC1CC(OC(=O)c1cc(Cl)cc(Cl)c1)C2 (stereo not given) [MDL 72222]
Ki [14]: 87.1 nM

CN(C)CCCN1c2ccccc2Sc2ccc(Cl)cc21 [[3-(2-Chloro-phenothiazin-10-yl)-propyl]-dimethyl-amine(Chlorpromazine)]
Ki [1]: 5010 nM

CC(C)n1cc2c3c(cccc31)C1CC(C(=O)NC3CCCCC3)CN(C)C1C2 (stereo not given) [NSC_60740]
Ki [10]: 10.7 nM

CNS(=O)(=O)Cc1ccc2[nH]cc(CCN(C)C)c2c1 [Sumax]
Ki [13]: 79.4 nM
Ki [9]: 2340 nM and 2090 nM
Ki [12]: > 10000 nM

CC(C)NCC(O)COc1cccc2[nH]ccc12 (stereo not given) [LB-46]
Ki [15]: 63.1 nM

CCC(=O)c1ccc(N)cc1 [CAS_6270]
Ki [4]: 34.7 nM

CC(C)C[C@H]1C(=O)N2CCC[C@H]2[C@]2(O)O[C@](NC(=O)[C@@H]3C=C4c5cccc6[nH]c(Br)c(c56)C[C@H]4N(C)C3)(C(C)C)C(=O)N12 [Bromocriptine+ (GTP+)]
Ki [1]: 126 nM

COc1ccc2[nH]cc(C3=CCNCC3)c2c1 [5-Methoxy-3-(1,2,3,6-tetrahydro-pyridin-4-yl)-1H-indole(RU-24969)]
Ki [15]: 10 nM
Ki [11]: 1.58 nM and 2.57 nM and 0.36 nM
Ki [3]: 46.8 nM
Ki [13]: 158 nM
Ki [4]: 63.1 nM

CC(C)(C)NCC(O)COc1cccc2[nH]c(C#N)cc12 (stereo not given) [NSC_155346]
Ki [15]: 2.51 nM
Ki [11]: 0.26 nM
Ki [3]: 36.3 nM
Ki [7]: 21.4 nM

COc1cc2c3cc1Oc1cc(ccc1O)C[C@@H]1c4c(cc(OC)c(O)c4Oc4ccc(cc4)C[C@@H]3N(C)CC2)CC[N+]1(C)C [Tubocurarine,d]
Ki [14]: 8.7 nM

COC(=O)[C@@H]1[C@H]2C[C@H]3c4[nH]c5ccccc5c4CCN3C[C@@H]2CC[C@@H]1O [yohimbic acid methyl ester]
Ki [15]: > 10000 nM
Ki [3]: 30.9 nM
Ki [6]: 15.8 nM and 47.9 nM
Ki [8]: 562 nM
Ki [13]: 63.1 nM
Ki [4]: 5.24 nM
Ki [10]: 58.9 nM and 35.5 nM and 107 nM and 53.7 nM

Cc1[nH]c2ccc(O)cc2c1CCN
Ki [7]: 851 nM and 513 nM
Ki [10]: 316 nM
Ki [5]: 6610 nM

CN1CCN2c3ccccc3Cc3ccccc3[C@H]2C1 [MIANSERIN (+)]
Ki [1]: 100 nM
Ki [2]: 12.6 nM
Ki [3]: 30.2 nM
Ki [13]: 100 nM
